Square brackets hold non-standard residues; d marks the D form. Ends that are not written are not given here. * marks the point of attachment. Azp = azidopentanoic acid, [N-]=[N+]=NCCCCC(=O)*; Cit = NC(=O)NCCC[C@H](N)C(=O)O
Key:
[1] = test system: T cells; test: In vitro T cell recognition of modified E7 and Reps1 peptide antigen fragments; type: cell-based; details: E7 (RAHYNIVTF) and Reps1 (AQLANDVVL) fragments modified at N- or C-terminus; FIGS. 28A and B
Excerpt: To study the impact of the solubilizing block and extensions on peptide antigen recognition by T cells in vitro, two model antigens, E7 ([…]) and Reps1 ([…]), modified at the N-terminal and/or C-terminal positions were produced by solid-phase peptide synthesis (Tables 25 and 26), and then screened in vitro for T cell recognition (FIG. 28).

[2] = test system: antigen specific CD4 T cells expressing FOXP3; test: Proportion of T cells expressing Tbet or Foxp3; Treg induction by tolerance vaccines with inhibitors and immunostimulants; type: cell-based
[3] = test system: OT-II cells; test: In vitro induction of regulatory T cells by tolerance vaccine formulations in co-culture of CD11c+ APCs and OT-II cells, flow cytometry; type: cell-based; details: 500 nM peptide antigen conjugate, three days
[4] = type: physicochemical; details: pH 7.4
[5] = pH-responsiveness of carboxylic acid amphiphiles by turbidity (OD at 490 nm); type: physicochemical; details: 0.1 mM in 1×PBS at pH 7.4, 7.0 or 6.5
[6] = Torin-1 combined with TLR-7/8a 2BXy, peptide antigen conjugate 500 nM

341: "modification of the C-terminus of peptide antigen fragments (e.g., Compounds 341 and 362) is more well tolerated" (RAHYNIVTFSV[Cit][Azidolysine]-NH2) [Compound 341]
potency for T cell recognition [1]: more well tolerated

343: "modification of the N-terminus of peptide antigen fragments (e.g., Compounds, 343 and 364) negatively impacts potency" (Azp-V[Cit]RAHYNIVTFS-NH2; SMILES CC[C@H](C)[C@H](NC(=O)[C@H](CC(N)=O)NC(=O)[C@H](Cc1ccc(O)cc1)NC(=O)[C@H](Cc1c[nH]cn1)NC(=O)[C@H](C)NC(=O)[C@H](CCCNC(=N)N)NC(=O)[C@H](CCCNC(N)=O)NC(=O)[C@@H](NC(=O)CCCCN=[N+]=[N-])C(C)C)C(=O)N[C@H](C(=O)N[C@H](C(=O)N[C@@H](Cc1ccccc1)C(=O)N[C@@H](CO)C(N)=O)[C@@H](C)O)C(C)C) [Compound 343]
potency for T cell recognition [1]: negatively impacts potency

364: "modification of the N-terminus of peptide antigen fragments (e.g., Compounds, 343 and 364) negatively impacts potency" (Azp-V[Cit]AQLANDVVL-NH2; SMILES CC(C)C[C@H](NC(=O)[C@@H](NC(=O)[C@@H](NC(=O)[C@H](CC(=O)O)NC(=O)[C@H](CC(N)=O)NC(=O)[C@H](C)NC(=O)[C@H](CC(C)C)NC(=O)[C@H](CCC(N)=O)NC(=O)[C@H](C)NC(=O)[C@H](CCCNC(N)=O)NC(=O)[C@@H](NC(=O)CCCCN=[N+]=[N-])C(C)C)C(C)C)C(C)C)C(N)=O) [Compound 364]
potency for T cell recognition [1]: negatively impacts potency

CCC(=O)N1CCN(c2ccc(-n3c(=O)ccc4cnc5ccc(-c6cnc7ccccc7c6)cc5c43)cc2C(F)(F)F)CC1 [Torin-1, Torin 1]
Magnitude of Tregs induced by tolerance vaccines ([2]; Torin-1 combined with TLR-7/8a 2BXy, versus other immunostimulants): highest magnitude Treg responses | Magnitude of Treg responses, fold higher than Torin-1 alone [2, 6]: 2 fold | Magnitude of Treg responses, fold higher than the vaccine without Torin-1 [2, 6]: 8 fold | Proportion of antigen specific CD4 T cells expressing FOXP3 ([2]; compared with SR1555, rapamycin and ITE, peptide antigen conjugate 500 nM): higher proportion of antigen specific CD4 T cells expressing FOXP3 | proportion of Tregs (Treg/Tbet) relative to formulations with rapamycin [3]: 2-4 fold | number and proportion of Tregs induced ([3]; vaccines with inhibitor vs without inhibitors, FIGS. 25 and 26): significantly higher

KKKKKKK-SGSGSGSGSGSGSGSGSGSGSGSG-(Lys(N3-DBCO))-Ahx-(F′)5 [Compound 91]
Size (diameter, nm) [4]: 477 nm

{Succinic acid}4K2K{Lys(N3-DBCO)}-Ahx-2B3W2 [Compound 274]
pH-responsiveness: aggregation / particle size stability by turbidity (OD at 490 nm) [5]: stable particle sizes down to at least pH 7.0

Reference: patent US20250127887A1 (priority 2021, published 2025)
